Assay results from paper PMC6588697, “Lugdunin amplifies innate immune responses in the skin in synergy with host- and microbiota-derived factors” (Nature Communications, 2019).
No end group written: not given here.

Tested on: S. aureus USA300
Assay: Antimicrobial testing (bactericidal, CFU) against S. aureus USA300
Format: cell-based, Staphylococcus aureus
Details: for S. aureus USA300 CFU normalized to untreated control (1.00): 3 h, mean of at least three experiments
Experimental: Fig. 5 Synergistic action of lugdunin and human antimicrobial peptides (AMPs) kills methicillin-resistant S. aureus (MRSA). a, c Logarithmically grown (3 × 10^6) S. aureus were incubated with indicated combinations of lugdunin and human AMPs in phosphate-buffered saline (PBS) containing 0.1% tryptic soy broth (TSB) at 37 °C orbital shaking (white bar, untreated; dark gray bars, AMP treatment; middle gray bars, lugdunin treatment; light gray bars, AMP and lugdunin combination treatment). After 3 h of incubation, several dilutions of the bacterial suspensions were plated onto TSB agar plates and incubated overnight at 37 °C. The next day S. aureus colony-forming units (CFUs) were counted. Each experiment was performed in triplicates. Data represent the percentage of CFU of at least three independent experiments normalized to the untreated control ± s.e.m. Significant differences to control treatments were analyzed by ordinary one-way analysis of variance (ANOVA) followed by Dunnett’s multiple comparisons test (*P < 0.05; **P < 0.01; ***P < 0.001; ****P < 0.0001). b Combination indices (CIs) were calculated using CompuSyn (ComboSyn Inc.) and indicated in median effect plots as a function of the bacteria fractions affected by the combinatorial peptide treatment. CI values of 1 indicate additive effects, whereas values <1 and >1 indicate synergistic and antagonistic effects, respectively. Source data are provided as a Source Data file TEXT PRINTED IN THE PICTURE: (a) DCD-1: S. aureus USA300, Lugdunin μM 0: 1.00 (DCD-1 μM: 0); S. aureus USA300, Lugdunin μM 1: 1.08 (DCD-1 μM: 0); S. aureus USA300, Lugdunin μM 2: 1.11 (DCD-1 μM: 0); S. aureus USA300, Lugdunin μM 3: 0.97 (DCD-1 μM: 0); S. aureus USA300, Lugdunin μM 0: 1.06 (DCD-1 μM: 1); S. aureus USA300, Lugdunin μM 1: 0.91 (DCD-1 μM: 1); S. aureus USA300, Lugdunin μM 2: 0.85 (DCD-1 μM: 1); S. aureus USA300, Lugdunin μM 3: 0.60 (DCD-1 μM: 1); S. aureus USA300, Lugdunin μM 0: 1.19 (DCD-1 μM: 2); S. aureus USA300, Lugdunin μM 1: 0.84 (DCD-1 μM: 2); S. aureus USA300, Lugdunin μM 2: 0.43 (DCD-1 μM: 2); S. aureus USA300, Lugdunin μM 3: 0.21 (DCD-1 μM: 2) | (a) DCD-1L: S. aureus USA300, Lugdunin μM 0: 1.00 (DCD-1L μM: 0); S. aureus USA300, Lugdunin μM 1: 1.08 (DCD-1L μM: 0); S. aureus USA300, Lugdunin μM 2: 1.11 (DCD-1L μM: 0); S. aureus USA300, Lugdunin μM 3: 0.97 (DCD-1L μM: 0); S. aureus USA300, Lugdunin μM 0: 1.13 (DCD-1L μM: 1); S. aureus USA300, Lugdunin μM 1: 0.98 (DCD-1L μM: 1); S. aureus USA300, Lugdunin μM 2: 0.68 (DCD-1L μM: 1); S. aureus USA300, Lugdunin μM 3: 0.07 (DCD-1L μM: 1); S. aureus USA300, Lugdunin μM 0: 1.37 (DCD-1L μM: 2); S. aureus USA300, Lugdunin μM 1: 0.60 (DCD-1L μM: 2); S. aureus USA300, Lugdunin μM 2: 0.42 (DCD-1L μM: 2); S. aureus USA300, Lugdunin μM 3: 0.02 (DCD-1L μM: 2) | (a) IL-37: S. aureus USA300, Lugdunin μM 0: 1.00 (IL-37 μM: 0); S. aureus USA300, Lugdunin μM 1: 1.08 (IL-37 μM: 0); S. aureus USA300, Lugdunin μM 2: 1.11 (IL-37 μM: 0); S. aureus USA300, Lugdunin μM 3: 0.97 (IL-37 μM: 0); S. aureus USA300, Lugdunin μM 0: 1.86 (IL-37 μM: 1); S. aureus USA300, Lugdunin μM 1: 1.27 (IL-37 μM: 1); S. aureus USA300, Lugdunin μM 2: 1.23 (IL-37 μM: 1); S. aureus USA300, Lugdunin μM 3: 1.90 (IL-37 μM: 1); S. aureus USA300, Lugdunin μM 0: 2.49 (IL-37 μM: 2); S. aureus USA300, Lugdunin μM 1: 1.28 (IL-37 μM: 2); S. aureus USA300, Lugdunin μM 2: 0.89 (IL-37 μM: 2); S. aureus USA300, Lugdunin μM 3: 0.38 (IL-37 μM: 2) DOUBTS OF THE COPYIST ABOUT THIS PICTURE: Panel a, third matrix: the row label reads IL-37, but it may be LL-37, as printed in panels b and c. / Panel a: the picture prints no measure for the matrix numbers, only the colour scale 'Growth – Killing, S. aureus USA300'. Each cell is a combination of Lugdunin (column, μM) with the peptide (row, μM). / Panel a: rows and columns at 0 μM are a single agent or the untreated control. […]

[1] = single peptide 0.4 µM, PBS + 0.1% TSB, 37 °C

Substance | S. aureus USA300 CFU normalized to untreated control (1.00) [1] | S. aureus USA300 CFU normalized to untreated control (1.00) (single peptide 0.6 µM) | S. aureus USA300 CFU normalized to untreated control (1.00) (single peptide 0.8 µM) | S. aureus USA300 CFU normalized to untreated control (1.00) (single peptide 1 µM) | S. aureus USA300 CFU normalized to untreated control (1.00) (single peptide 2 µM) | antimicrobial activity on co-incubation with human AMPs (in words) (S. aureus USA300, text to Supp Figs 5, 6)
IASKFLCTPGCAKTGSFNSYCC (also: bicyclic or more (positions not given here)) [Gallidermin, bacteriocin isolated from Staphylococcus gallinarum] | 0,84 | 0,91 | 0,74 | – | – | –
ITSISLCTPGCKTGALMGCNMKTATCHCSIHVSK (not fully specified (bridges); also: lanthionine rings, places not given here) [Nisin, bacteriocin of Lactococcus lactis, purchased from Sigma] | 1,31 | 1,49 | 1,49 | – | – | –
LLGDFFRKSKEKIGKEFKRIVQRIKDFLRNLVPRTES [LL-37, human cathelicidin AMP] | – | – | – | 1,86 | 2,49 | –
Lugdunin | – | – | – | 1,08 | 1,11 | –
MEAVKEKNELFDLDVKVNAKESNDSGAEPRIASKFLCTPGCAKTGSFNSYCC [Pro-Gallidermin, non-bactericidal pro-form of gallidermin] | 1,34 | 1,61 | 1,30 | – | – | did not lead to antimicrobial activity
SSLLEKGLDGAKKAVGGLGKLGKDAVEDLESVGKGAVHDVKDVLDSV [DCD-1, dermcidin-derived human AMP of eccrine sweat glands] | – | – | – | 1,06 | 1,19 | –
SSLLEKGLDGAKKAVGGLGKLGKDAVEDLESVGKGAVHDVKDVLDSVL [DCD-1L, dermcidin-derived human AMP of eccrine sweat glands] | – | – | – | 1,13 | – | –
